Source: patent US20180099931A1 (AbbVie S.à.r.l., priority 2016, published 2018)
Where two headings read alike, the source gives them in different places.

Biological target: T1, F508delCFTR (Homo sapiens, UniProt P13569, DEL508-508)
T1 construct: expressed in transfected cells; host or cells: CFBE41o- human lung-derived epithelial cells (CFBE4lo-F508delCFTR-HRP), doxycycline-inducible
Experiment: Cell Surface Expression-Horse Radish Peroxidase (CSE-HRP) Assay;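 for Maximum % activity (with co-corrector): co-corrector and positive control are both the same reference corrector at 2 µM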;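 for Maximum % activity (without co-corrector): percent of the 2 µM on-plate positive control corrector response above DMSO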
Assay type: cell-based
Settings: CSE-HRP; for Maximum % activity (with co-corrector): with co-corrector (2 μM); for Maximum % activity (with co-corrector) / Emax: maximum at any tested concentration, normalized to on-plate positive control; for Emax: without co-corrector, read-out: Maximum % activity (without co-corrector)

[1] = test compound without co-corrector, read-out: EC50 (without co-corrector)
[2] = with co-corrector (2 μM of 3-[(2R,4R)-4-({[1-(2,2-difluoro-1,3-benzodioxol-5-yl)cyclopropyl]carbonyl}amino)-7-methoxy-3,4-dihydro-2H-chromen-2-yl]benzoic acid), read-out: EC50 (with co-corrector)

T1 sequence (P13569 with tags, fused parts or gaps DEL508-508): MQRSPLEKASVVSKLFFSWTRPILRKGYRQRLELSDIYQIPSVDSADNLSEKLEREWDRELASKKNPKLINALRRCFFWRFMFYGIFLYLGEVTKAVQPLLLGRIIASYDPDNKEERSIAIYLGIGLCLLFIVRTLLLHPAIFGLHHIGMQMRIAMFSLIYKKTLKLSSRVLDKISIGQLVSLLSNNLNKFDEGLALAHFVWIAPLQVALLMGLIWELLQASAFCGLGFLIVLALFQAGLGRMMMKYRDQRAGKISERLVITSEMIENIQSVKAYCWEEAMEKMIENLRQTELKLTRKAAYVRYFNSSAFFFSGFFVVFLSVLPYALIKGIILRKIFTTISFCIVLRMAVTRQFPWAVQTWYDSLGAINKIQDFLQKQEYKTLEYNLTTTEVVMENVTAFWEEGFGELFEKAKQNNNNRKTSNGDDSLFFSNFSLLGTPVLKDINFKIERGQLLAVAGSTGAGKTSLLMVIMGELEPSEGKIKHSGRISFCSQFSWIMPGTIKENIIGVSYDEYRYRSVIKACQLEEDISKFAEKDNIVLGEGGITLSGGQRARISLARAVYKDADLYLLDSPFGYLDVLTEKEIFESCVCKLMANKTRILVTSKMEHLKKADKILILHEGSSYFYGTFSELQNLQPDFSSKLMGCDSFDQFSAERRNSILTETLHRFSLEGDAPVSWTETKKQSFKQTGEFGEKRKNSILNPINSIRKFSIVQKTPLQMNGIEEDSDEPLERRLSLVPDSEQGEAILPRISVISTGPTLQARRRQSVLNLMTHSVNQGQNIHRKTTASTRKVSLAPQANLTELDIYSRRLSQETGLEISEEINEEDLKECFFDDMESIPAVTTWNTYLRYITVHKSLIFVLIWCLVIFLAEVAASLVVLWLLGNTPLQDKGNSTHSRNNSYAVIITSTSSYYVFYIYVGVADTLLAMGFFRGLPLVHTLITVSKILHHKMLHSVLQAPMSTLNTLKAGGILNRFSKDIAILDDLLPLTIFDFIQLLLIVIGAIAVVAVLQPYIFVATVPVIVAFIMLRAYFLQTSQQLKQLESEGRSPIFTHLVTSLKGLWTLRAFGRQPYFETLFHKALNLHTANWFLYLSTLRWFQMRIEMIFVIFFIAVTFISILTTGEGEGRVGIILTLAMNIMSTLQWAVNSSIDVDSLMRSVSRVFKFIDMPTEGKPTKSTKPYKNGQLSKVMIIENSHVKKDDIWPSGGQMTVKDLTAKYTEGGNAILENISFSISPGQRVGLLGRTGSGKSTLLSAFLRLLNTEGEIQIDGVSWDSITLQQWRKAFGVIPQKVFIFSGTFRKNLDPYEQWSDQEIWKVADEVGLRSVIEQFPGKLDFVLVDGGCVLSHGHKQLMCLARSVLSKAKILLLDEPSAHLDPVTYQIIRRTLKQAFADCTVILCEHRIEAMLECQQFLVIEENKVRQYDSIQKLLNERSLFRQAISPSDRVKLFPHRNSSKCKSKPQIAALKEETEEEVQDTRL

## COc1cc(Cl)ccc1CN[C@H]1[C@H](C(C)(C)C)[C@@H](C(=O)O)N(C(=O)C2CCCCC2)[C@H]1c1cccnc1OC [II-91]
[1]
  EC50: 1 to 10 µM
[2]
  EC50: 1 to 10 µM
  Maximum % activity (with co-corrector): +++ (≥350)
  Emax: 100 to 200%

## COc1cc(C(F)(F)F)ccc1CN[C@H]1[C@H](C(C)(C)C)[C@@H](C(=O)O)N(C(=O)[C@@H]2CCCCO2)[C@H]1c1cccnc1OC [II-92]
[1]
  EC50: 1 to 10 µM
[2]
  EC50: 1 to 10 µM
  Maximum % activity (with co-corrector): +++ (≥350)
  Emax: 100 to 200%

## COc1ccc(C(F)(F)F)cc1CN[C@H]1[C@H](C(C)(C)C)[C@@H](C(=O)O)N(C(=O)C2CCCCC2)[C@H]1c1cccnc1C [II-93]
[1]
  EC50: 1 to 10 µM
[2]
  EC50: 1 to 10 µM
  Maximum % activity (with co-corrector): +++ (≥350)
  Emax: 100 to 200%

## COc1cc(C(F)(F)F)ccc1CN[C@H]1[C@H](C(C)(C)C)[C@@H](C(=O)O)N(C(=O)C2CCCCC2)[C@H]1c1cccnc1C [II-94]
[1]
  EC50: 1 to 10 µM
[2]
  EC50: 1 to 10 µM
  Maximum % activity (with co-corrector): +++ (≥350)
  Emax: 100 to 200%

## COc1ccc(Cl)cc1CN[C@H]1[C@H](C(C)(C)C)[C@@H](C(=O)O)N(C(=O)C2CCCCC2)[C@H]1c1cccnc1C [II-95]
[1]
  EC50: 1 to 10 µM
[2]
  EC50: 1 to 10 µM
  Maximum % activity (with co-corrector): +++ (≥350)
  Emax: < 100%

## COc1cc(Cl)ccc1CN[C@H]1[C@H](C(C)(C)C)[C@@H](C(=O)O)N(C(=O)C2CCCCC2)[C@H]1c1cccnc1C [II-96]
[1]
  EC50: 1 to 10 µM
[2]
  EC50: 1 to 10 µM
  Maximum % activity (with co-corrector): +++ (≥350)
  Emax: 100 to 200%

## COc1ccc(Cl)cc1CN[C@H]1[C@H](C(C)(C)C)[C@@H](C(=O)O)N(C(=O)C2CCCCC2)[C@H]1c1ccccc1 [II-97]
[1]
  EC50: 1 to 10 µM
[2]
  EC50: < 1 µM
  Maximum % activity (with co-corrector): +++ (≥350)
  Emax: > 200%

## COc1cc(Cl)ccc1CN[C@H]1[C@H](C(C)(C)C)[C@@H](C(=O)O)N(C(=O)C2CCCCC2)[C@H]1c1ccccc1 [II-99]
[1]
  EC50: 1 to 10 µM
[2]
  EC50: 1 to 10 µM
  Maximum % activity (with co-corrector): +++ (≥350)
  Emax: 100 to 200%

## CC(C)(C)[C@H]1[C@H](NCc2coc3ccccc23)[C@H](c2ccccc2)N(C(=O)C2CCCCC2)[C@@H]1C(=O)O [II-100]
[1]
  EC50: 1 to 10 µM
[2]
  EC50: 1 to 10 µM
  Maximum % activity (with co-corrector): ++ (≥150 and <350)
  Emax: < 100%

## COc1cc(C(C)(C)C)ccc1CN[C@H]1[C@H](C(C)(C)C)[C@@H](C(=O)O)N(C(=O)C2CCCCC2)[C@H]1c1cccnc1OC [II-101]
[1]
  EC50: 1 to 10 µM
[2]
  EC50: 1 to 10 µM
  Maximum % activity (with co-corrector): +++ (≥350)
  Emax: 100 to 200%

## COc1cc(C(C)(C)C)ccc1CN[C@H]1[C@H](C(C)(C)C)[C@@H](C(=O)O)N(C(=O)C2CCCCC2)[C@H]1c1cccnc1N(C)C [II-102]
[1]
  EC50: 1 to 10 µM
[2]
  EC50: < 1 µM
  Maximum % activity (with co-corrector): +++ (≥350)
  Emax: 100 to 200%

## COc1cc(C(C)(C)C)ccc1CN[C@H]1[C@H](C(C)(C)C)[C@@H](C(=O)O)N(C(=O)C2CCCCC2)[C@H]1c1ccccc1 [II-103]
[1]
  EC50: 1 to 10 µM
[2]
  EC50: 1 to 10 µM
  Maximum % activity (with co-corrector): +++ (≥350)
  Emax: 100 to 200%

## COc1cc(CN[C@H]2[C@H](C(C)(C)C)[C@@H](C(=O)O)N(C(=O)C3CCCCC3)[C@H]2c2ccccc2)c(F)cc1Cl [II-104]
[1]
  EC50: 1 to 10 µM
[2]
  EC50: 1 to 10 µM
  Maximum % activity (with co-corrector): ++ (≥150 and <350)
  Emax: < 100%

## CC(C)(C)[C@H]1[C@H](NCc2cc(Cl)ccc2Cl)[C@H](c2ccccc2)N(C(=O)C2CCCCC2)[C@@H]1C(=O)O [II-105]
[1]
  EC50: 1 to 10 µM
[2]
  EC50: 1 to 10 µM
  Maximum % activity (with co-corrector): +++ (≥350)
  Emax: < 100%

## COc1ccc(F)c(CN[C@H]2[C@H](C(C)(C)C)[C@@H](C(=O)O)N(C(=O)C3CCCCC3)[C@H]2c2ccccc2)c1 [II-106]
[1]
  EC50: 1 to 10 µM
[2]
  EC50: 1 to 10 µM
  Maximum % activity (with co-corrector): ++ (≥150 and <350)
  Emax: < 100%

## CC(C)(C)[C@H]1[C@H](NCc2cc(Cl)ccc2OC(F)F)[C@H](c2ccccc2)N(C(=O)C2CCCCC2)[C@@H]1C(=O)O [II-107]
[1]
  EC50: < 1 µM
[2]
  EC50: 1 to 10 µM
  Maximum % activity (with co-corrector): +++ (≥350)
  Emax: < 100%

## CC(C)(C)[C@H]1[C@H](NCc2cc(C(F)(F)F)cc(C(F)(F)F)c2)[C@H](c2ccccc2)N(C(=O)C2CCCCC2)[C@@H]1C(=O)O [II-108]
[1]
  EC50: 1 to 10 µM
[2]
  EC50: 1 to 10 µM
  Maximum % activity (with co-corrector): +++ (≥350)
  Emax: < 100%

## COc1ccc(CN[C@H]2[C@H](C(C)(C)C)[C@@H](C(=O)O)N(C(=O)C3CCCCC3)[C@H]2c2ccccc2)c(C(F)(F)F)c1 [II-109]
[1]
  EC50: < 1 µM
[2]
  EC50: 1 to 10 µM
  Maximum % activity (with co-corrector): ++ (≥150 and <350)
  Emax: < 100%

## COc1ccc(Br)c(CN[C@H]2[C@H](C(C)(C)C)[C@@H](C(=O)O)N(C(=O)C3CCCCC3)[C@H]2c2ccccc2)c1 [II-110]
[1]
  EC50: 1 to 10 µM
[2]
  EC50: 1 to 10 µM
  Maximum % activity (with co-corrector): +++ (≥350)
  Emax: < 100%

## CC(C)(C)[C@H]1[C@H](NCc2cc(Cl)cc(Cl)c2)[C@H](c2ccccc2)N(C(=O)C2CCCCC2)[C@@H]1C(=O)O [II-111]
[1]
  EC50: 1 to 10 µM
[2]
  EC50: 1 to 10 µM
  Maximum % activity (with co-corrector): ++ (≥150 and <350)
  Emax: < 100%

## COc1cc(CN[C@H]2[C@H](C(C)(C)C)[C@@H](C(=O)O)N(C(=O)C3CCCCC3)[C@H]2c2ccccc2)ccc1F [II-112]
[1]
  EC50: > 10 µM
[2]
  EC50: 1 to 10 µM
  Maximum % activity (with co-corrector): ++ (≥150 and <350)
  Emax: < 100%

## CC(C)(C)[C@H]1[C@H](NCc2ccc(Cl)cc2Cl)[C@H](c2ccccc2)N(C(=O)C2CCCCC2)[C@@H]1C(=O)O [II-113]
[1]
  EC50: < 1 µM
[2]
  EC50: 1 to 10 µM
  Maximum % activity (with co-corrector): +++ (≥350)
  Emax: < 100%

## COc1cc(CN[C@H]2[C@H](C(C)(C)C)[C@@H](C(=O)O)N(C(=O)C3CCCCC3)[C@H]2c2ccccc2)c(Br)cc1F [II-114]
[1]
  EC50: < 1 µM
[2]
  EC50: 1 to 10 µM
  Maximum % activity (with co-corrector): +++ (≥350)
  Emax: < 100%

## CC(C)(C)[C@H]1[C@H](NCc2cc(F)cc(F)c2)[C@H](c2ccccc2)N(C(=O)C2CCCCC2)[C@@H]1C(=O)O [II-115]
[1]
  EC50: > 10 µM
[2]
  EC50: 1 to 10 µM
  Maximum % activity (with co-corrector): ++ (≥150 and <350)
  Emax: < 100%

## COc1cc2c(cc1CN[C@H]1[C@H](C(C)(C)C)[C@@H](C(=O)O)N(C(=O)C3CCCCC3)[C@H]1c1ccccc1)OCO2 [II-116]
[1]
  EC50: 1 to 10 µM
[2]
  EC50: 1 to 10 µM
  Maximum % activity (with co-corrector): +++ (≥350)
  Emax: 100 to 200%

## Cc1ccc(C)c(CN[C@H]2[C@H](C(C)(C)C)[C@@H](C(=O)O)N(C(=O)C3CCCCC3)[C@H]2c2ccccc2)c1 [II-117]
[1]
  EC50: 1 to 10 µM
[2]
  EC50: 1 to 10 µM
  Maximum % activity (with co-corrector): +++ (≥350)
  Emax: < 100%

## COc1cc(F)ccc1CN[C@H]1[C@H](C(C)(C)C)[C@@H](C(=O)O)N(C(=O)C2CCCCC2)[C@H]1c1ccccc1 [II-118]
[1]
  EC50: 1 to 10 µM
[2]
  EC50: 1 to 10 µM
  Maximum % activity (with co-corrector): +++ (≥350)
  Emax: 100 to 200%

## CCOc1ccc(CN[C@H]2[C@H](C(C)(C)C)[C@@H](C(=O)O)N(C(=O)C3CCCCC3)[C@H]2c2ccccc2)c(C)c1 [II-119]
[1]
  EC50: 1 to 10 µM
[2]
  EC50: 1 to 10 µM
  Maximum % activity (with co-corrector): ++ (≥150 and <350)
  Emax: < 100%

## COc1ccc(C(F)(F)F)cc1CN[C@H]1[C@H](C(C)(C)C)[C@@H](C(=O)O)N(C(=O)[C@@H](C)OC)[C@H]1c1ccccc1 [II-120]
[1]
  EC50: 1 to 10 µM
[2]
  EC50: 1 to 10 µM
  Maximum % activity (with co-corrector): +++ (≥350)
  Emax: 100 to 200%

## CC(C)(C)c1cccc(CN[C@H]2[C@H](C(C)(C)C)[C@@H](C(=O)O)N(C(=O)C3CCCCC3)[C@H]2c2ccccc2)c1 [II-121]
[1]
  EC50: 1 to 10 µM
[2]
  EC50: 1 to 10 µM
  Maximum % activity (with co-corrector): ++ (≥150 and <350)
  Emax: < 100%
